Source: PubChem BioAssay AID608 (Sanford-Burnham Center for Chemical Genomics, 2007)
Activity calls are given as the source filed them. How the calls were made is not given here.

molecular target: Peptidyl-prolyl cis-trans isomerase FKBP1A (Homo sapiens) (UniProt P62942); experiment: small-molecule binding to FKBP12 – biophysical, NMR detection (AID 608); settings: purified FKBP12
Sequence (P62942 whole entry, looked up): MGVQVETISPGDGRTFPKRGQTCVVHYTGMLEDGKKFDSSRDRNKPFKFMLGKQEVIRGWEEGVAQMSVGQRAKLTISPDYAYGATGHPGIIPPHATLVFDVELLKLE

| Structure (SMILES) | Kd |
| --- | --- |
| Cc1ccc(/C=N/NC(N)=O)o1 | > 4 mM (inactive) |
| Cc1cc(C)n(-c2nc(C)nc(N)n2)n1 | > 4 mM (inactive) |
| CC(C)CCn1cnc2c1c(=O)n(C)c(=O)n2C | > 4 mM (inactive) |
| CC(C)=CC(=O)Nc1ccccc1Br | > 4 mM (inactive) |
| CCn1c(C)c(C(C)=O)c(N2CCOCC2)nc1=S | > 4 mM (inactive) |
| CS(C)=C1C(=O)NC(=O)N(c2ccccc2)C1=O | > 4 mM (inactive) |
| CC(=O)Nc1ccc(NC(=O)c2ccnn2C)cc1 | > 4 mM (inactive) |
| CCOC(=O)c1c[nH]c2c(F)cccc2c1=O | > 4 mM (inactive) |
| OCC1Cc2ccccc2N1 (configuration not stated) | > 4 mM (inactive) |
| c1ccc(CCNc2ncnc3nc[nH]c23)cc1 | > 4 mM (inactive) |
| Cc1cc(=O)n(CCc2ccccc2)c(O)c1C#N | > 4 mM (inactive) |
| COC(=O)c1cc(C)on1 | > 4 mM (inactive) |
| Cc1cc2ncn(S(=O)(=O)N3CCCCC3)c2cc1C | > 4 mM (inactive) |
| O=c1sc2ccccc2n1CN1CCOCC1 | > 4 mM (inactive) |
| CSc1nnc(CN2CCSCC2)n1C | > 4 mM (inactive) |
| Cc1ccc(-n2cnnn2)c2cccnc12 | > 4 mM (inactive) |
| CC1(C)C(=O)CC[C@@]2(C)C1C[C@@H](O)[C@@]1(C)C3=CC(=O)O[C@@H](c4ccoc4)[C@]3(C)CCC21 (some centres not stated) | > 4 mM (inactive) |
| COc1c2ccoc2c(OC)c2oc(=O)ccc12 | > 4 mM (inactive) |
| CN1CCN(c2ccc(CN)cc2)CC1 | > 4 mM (inactive) |
| COc1ccc(Cl)cc1NC(=O)c1ccco1 | > 4 mM (inactive) |
| COc1ccc2c(c1)[n+](=O)c(C(C)=O)c(C)n2[O-] | > 4 mM (inactive) |
| Cc1cc(C(=O)NCc2cccnc2)cs1 | > 4 mM (inactive) |

| Structure (SMILES) | Kd |
| --- | --- |
| O=c1ccc2c([nH]1)CCCC2 | > 4 mM (inactive) |
| O=c1ccnc(Nc2ccccc2O)[nH]1 | > 4 mM (inactive) |
| N#Cc1cc(-c2ccccc2)oc1N | > 4 mM (inactive) |
| O=C1CSC(=Nc2ccc(C(=O)O)cc2)N1 | > 4 mM (inactive) |
| Oc1ccc(C(=S)N2CCCCC2)cc1Cl | > 4 mM (inactive) |
| O=C(O)C1CCCCN1Cc1ccccc1 (configuration not stated) | > 4 mM (inactive) |
| COc1cc2c3cc1Oc1c(OC)c(OC)cc4c1[C@@H](Cc1cccc(c1)Oc1ccc(c(O)c1)C[C@@H]3N(C)CC2)N(C)CC4 | > 4 mM (inactive) |
| Cc1nnc(SCC(=O)N2CCc3ccccc32)s1 | > 4 mM (inactive) |
| Cn1nc(C(C)(C)C)cc1N | > 4 mM (inactive) |
| NC1CN2CCC1CC2 (configuration not stated) | > 4 mM (inactive) |
| O=C(O)c1cccnc1-c1nc2ccccc2s1 | > 4 mM (inactive) |
| OCC1=Cc2ccccc2OC1 | > 4 mM (inactive) |
| CN1CCN(C(=S)NC(=O)c2ccn(C)n2)CC1 | > 4 mM (inactive) |
| O=C(CC1SC(=O)NC1=O)Nc1nccs1 (configuration not stated) | > 4 mM (inactive) |
| CN(c1ccccc1C(=O)N1CCOCC1)S(C)(=O)=O | > 4 mM (inactive) |
| COC(=O)c1[nH]c2ccccc2c1C(=O)OC | > 4 mM (inactive) |
| NC1=NC(=O)CC(C(=O)Nc2ccccc2)S1 (configuration not stated) | > 4 mM (inactive) |
| O=[N+]([O-])c1ccc2c(c1)N([O-])C1(CCCCC1)[N+]2=O | > 4 mM (inactive) |
| Cc1occc1C(=O)Nc1nnc(-c2ccncc2)s1 | > 4 mM (inactive) |
| Cc1ccc(NS(=O)(=O)N2CCCCC2)cc1 | 0.425 mM |
| Nc1nnc(COc2cccc(C(F)(F)F)c2)s1 | > 4 mM (inactive) |
| O=S(=O)(Nc1ccc(Br)cc1)N1CCCCC1 | 0.669 mM |

| Structure (SMILES) | Kd |
| --- | --- |
| Cn1c(SCC(N)=O)nc2c1c(=O)[nH]c(=O)n2C | > 4 mM (inactive) |
| NC(=O)c1ccsc1N | > 4 mM (inactive) |
| CC(=O)Nc1cccc(N2C(=O)CCC2=O)c1 | > 4 mM (inactive) |
| CCCn1c(C)cc(=O)[nH]c1=O | > 4 mM (inactive) |
| Cn1ccc(NC(=S)Nc2cccc([N+](=O)[O-])c2)n1 | > 4 mM (inactive) |
| Nc1cc(F)ccc1-n1ccnc1 | > 4 mM (inactive) |
| Cc1cc(O)c(C=O)c(O)c1C(=O)O | > 4 mM (inactive) |
| NCc1ccc2c(c1)OCCCO2 | > 4 mM (inactive) |
| c1csc(-c2nnc3ccccn23)c1 | > 4 mM (inactive) |
| Cc1nn(C)c2sc(CO)cc12 | > 4 mM (inactive) |
| CN1CCN(CC(O)c2ccccc2)CC1 (configuration not stated) | > 4 mM (inactive) |
| Cc1cc(=O)n2ccc(CN3CCOCC3)c(O)c2n1 | > 4 mM (inactive) |
| Cc1n[nH]c(=O)nc1N1CCN(c2ccccc2)CC1 | > 4 mM (inactive) |
| NCc1cn2ccccc2n1 | > 4 mM (inactive) |
| COC(=O)c1cn(C(=O)OC)c2ccccc12 | > 4 mM (inactive) |
| CN(C)C(=O)CSc1cccc2cccnc12 | > 4 mM (inactive) |
| O=c1nc(NCc2ccco2)sc2ncccc12 | > 4 mM (inactive) |
| Cc1nc2ccccc2c(=O)n1NC(=O)Nc1ccccc1 | > 4 mM (inactive) |
| C[C@@H]1OC(O[C@H]2[C@H](OC(=O)[C@]34CCC(C)(C)CC3C3=CCC5[C@@]6(C)CC[C@H](OC7O[C@@H](C)[C@H](O[C@@H]8OC[C@@H](O)[C@H](O)[C@H]8O)[C@@H](O)[C@H]7O)C(C)(C)C6CC[C@@]5(C)[C@]3(C)CC4O)OC[C@H](O)[C@H]2O)[C@H](O)[C@H](O)[C@H]1O[C@@H]1O[C@H](CO)[C@@H](O)[C@H](O)[C@H]1O (some centres not stated) | > 4 mM (inactive) |
| COc1ccc(CN2CCNC(=O)C2CC(=O)O)cc1C (configuration not stated) | > 4 mM (inactive) |
| NC1=C([N+](=O)[O-])C(=O)c2ccccc21 | > 4 mM (inactive) |
| O=S1(=O)CCC(Nc2ccccc2)C1 (configuration not stated) | > 4 mM (inactive) |

| Structure (SMILES) | Kd |
| --- | --- |
| COC(=O)Nc1nnc(-c2ccncc2)s1 | > 4 mM (inactive) |
| CC(C)(C)C(=O)N1CCCC1C(=O)O (configuration not stated) | > 4 mM (inactive) |
| CC(=O)c1cc2c(cc1O)OC(C)(C)C=C2 | > 4 mM (inactive) |
| O=C(O)CC12CC3CC(CC(O)(C3)C1)C2 | > 4 mM (inactive) |
| CCOC(=O)c1c(C)cc(O)c(C=O)c1O | > 4 mM (inactive) |
| Cc1ncc(C(=O)O)c(-c2ccccc2)n1 | > 4 mM (inactive) |
| O=c1cc(O)n(-c2ccc(F)cc2)c(=S)[nH]1 | > 4 mM (inactive) |
| COc1cc(C(C)=O)ccc1OC(=O)N1CCOCC1 | > 4 mM (inactive) |
| CC(=O)Nc1ccc(NC2SC(=O)NC2=O)cc1 (configuration not stated) | > 4 mM (inactive) |
| O=C(NC(=S)NCCO)c1ccccc1 | > 4 mM (inactive) |
| NC(CC(=O)O)C(=O)Nc1ccc(Cl)cc1 (configuration not stated) | > 4 mM (inactive) |
| CC(=O)Nc1ccc(S(=O)(=O)NC(N)=O)cc1 | > 4 mM (inactive) |
| COc1ccc(Cl)cc1NS(=O)(=O)N1CCCCC1 | inactive |
| N#Cc1c[nH]n2c(=O)cc(Cc3ccccc3)nc12 | > 4 mM (inactive) |
| CCCNC(CC(=O)Nc1cccnc1)C(=O)O (configuration not stated) | > 4 mM (inactive) |
| CC(C)(C)NC(=O)N1CCC(C(=O)O)CC1 | > 4 mM (inactive) |
| Cc1ccc(C(=O)Nn2cnnc2)c(Cl)c1 | > 4 mM (inactive) |
| O=C(c1nc2ncccn2n1)N1CCc2ccccc2C1 | > 4 mM (inactive) |
| FC(F)(F)c1cc(-c2ccco2)nc(N2CCOCC2)n1 | > 4 mM (inactive) |
| O=C1c2cccnc2C(=O)N1Cc1ccco1 | > 4 mM (inactive) |
| CC1(C)CC2C1CCC1(C)OC1CCC2(C)O (configuration not stated) | > 4 mM (inactive) |
